Assay results published in patent US9499553B2 (CHUGAI SEIYAKU KABUSHIKI KAISHA, priority 2013, dated 2016).

biological target: T1, human NaPi-IIb (Homo sapiens, UniProt O95436); assay: Inhibitory effect on 33PO4 uptake into human NaPi-IIb-expressing CHO cells; type: cell-based; details: read-out: IC50 against 33PO4 uptake into human NaPi-IIb-expressing cells
T1 construct: expressed in transfected cells
T1 sequence (O95436 1-690): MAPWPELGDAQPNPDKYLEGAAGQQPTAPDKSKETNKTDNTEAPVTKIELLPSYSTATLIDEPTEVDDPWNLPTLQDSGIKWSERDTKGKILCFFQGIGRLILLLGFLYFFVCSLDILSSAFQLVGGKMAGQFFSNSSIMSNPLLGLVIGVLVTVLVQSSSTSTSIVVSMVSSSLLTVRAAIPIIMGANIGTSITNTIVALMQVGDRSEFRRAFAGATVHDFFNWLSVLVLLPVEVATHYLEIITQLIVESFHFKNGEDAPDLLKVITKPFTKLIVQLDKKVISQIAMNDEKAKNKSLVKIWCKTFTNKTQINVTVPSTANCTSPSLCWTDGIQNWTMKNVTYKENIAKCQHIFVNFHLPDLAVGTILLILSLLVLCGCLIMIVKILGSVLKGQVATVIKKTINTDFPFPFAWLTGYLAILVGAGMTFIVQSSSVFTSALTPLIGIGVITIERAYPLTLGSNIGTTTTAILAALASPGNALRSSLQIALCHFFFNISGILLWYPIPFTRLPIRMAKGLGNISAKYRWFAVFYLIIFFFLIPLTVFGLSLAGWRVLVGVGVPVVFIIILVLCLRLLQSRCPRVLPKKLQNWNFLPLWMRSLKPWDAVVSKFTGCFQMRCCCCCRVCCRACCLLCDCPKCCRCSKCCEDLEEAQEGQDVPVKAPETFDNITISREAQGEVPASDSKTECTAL
Outline: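 Stable human NaPi-IIb CHO line (G418-selected), plated and cultured overnight; ³³PO4 added in buffer A and uptake run at room temperature. Cells washed with ice-cold buffer A, then uptake counted by liquid scintillation.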

SMILES | IC50 [µM]
COCCN(CCOC)CCOc1ccc(CN2C(=O)C(C(=O)Nc3ccc(C(F)(F)F)cc3-c3cc(C(F)(F)F)ncn3)=C(O)C3(CCC3)N2C)c(F)c1F [Example 348] | 26.1
COCC(C)(C)N(C)CCOc1ccc(CN2C(=O)C(C(=O)Nc3ccc(C(F)(F)F)cc3-c3cc(C(F)(F)F)ncn3)=C(O)C3(CCC3)N2C)c(F)c1F [Example 349] | 8.3
COC(C)(C)CN(C)CCOc1ccc(CN2C(=O)C(C(=O)Nc3ccc(C(F)(F)F)cc3-c3cc(C(F)(F)F)ncn3)=C(O)C3(CCC3)N2C)c(F)c1F [Example 350] | 16.9
CN1N(Cc2ccc(OCCN(CCO)CCO)c(F)c2F)C(=O)C(C(=O)Nc2ccc(C(F)(F)F)cc2-c2cc(C(F)(F)F)ncn2)=C(O)C12CCC2 [Example 351] | 25.5
CN1N(Cc2ccc(OCCn3cncn3)c(F)c2F)C(=O)C(C(=O)Nc2ccc(C(F)(F)F)cc2-c2cc(C(F)(F)F)ncn2)=C(O)C12CCC2 [Example 352] | 16.7
CC(=O)NCCN(C)CCOc1ccc(CN2C(=O)C(C(=O)Nc3ccc(C(F)(F)F)cc3-c3cc(C(F)(F)F)ncn3)=C(O)C3(CCC3)N2C)c(F)c1F [Example 353] | 23.9
CC(=O)N(C)CCN(C)CCOc1ccc(CN2C(=O)C(C(=O)Nc3ccc(C(F)(F)F)cc3-c3cc(C(F)(F)F)ncn3)=C(O)C3(CCC3)N2C)c(F)c1F [Example 354] | 26
COC(=O)[C@@H]1CCCN1CCOc1ccc(CN2C(=O)C(C(=O)Nc3ccc(C(F)(F)F)cc3-c3cc(C(F)(F)F)ncn3)=C(O)C3(CCC3)N2C)c(F)c1F [Example 355] | 15
COC1(C)CN(CCOc2ccc(CN3C(=O)C(C(=O)Nc4ccc(C(F)(F)F)cc4-c4cc(C(F)(F)F)ncn4)=C(O)C4(CCC4)N3C)c(F)c2F)C1 [Example 356] | 21.9
CSC1CN(CCOc2ccc(CN3C(=O)C(C(=O)Nc4ccc(C(F)(F)F)cc4-c4cc(C(F)(F)F)ncn4)=C(O)C4(CCC4)N3C)c(F)c2F)C1 [Example 357] | 21.8
CN1N(Cc2ccc(OCCN3CCC(N4CCOCC4)CC3)c(F)c2F)C(=O)C(C(=O)Nc2ccc(C(F)(F)F)cc2-c2cc(C(F)(F)F)ncn2)=C(O)C12CCC2 [Example 358] | 9.2
CN1CCN(CCOc2ccc(CN3C(=O)C(C(=O)Nc4ccc(C(F)(F)F)cc4-c4cc(C(F)(F)F)ncn4)=C(O)C4(CCC4)N3C)c(F)c2F)CC1=O [Example 359] | 18.4
CN1N(Cc2ccc(OCCN3CCN(CCO)CC3)c(F)c2F)C(=O)C(C(=O)Nc2ccc(C(F)(F)F)cc2-c2cc(C(F)(F)F)ncn2)=C(O)C12CCC2 [Example 360] | 23.1
CN1N(Cc2ccc(OCCN3CCN(CCOCCO)CC3)c(F)c2F)C(=O)C(C(=O)Nc2ccc(C(F)(F)F)cc2-c2cc(C(F)(F)F)ncn2)=C(O)C12CCC2 [Example 361] | 20.2
CN1N(Cc2ccc(OCCN3CCN(CCCO)CC3)c(F)c2F)C(=O)C(C(=O)Nc2ccc(C(F)(F)F)cc2-c2cc(C(F)(F)F)ncn2)=C(O)C12CCC2 [Example 362] | 18.8
CN1N(Cc2ccc(OCCN3CCN(S(C)(=O)=O)CC3)c(F)c2F)C(=O)C(C(=O)Nc2ccc(C(F)(F)F)cc2-c2cc(C(F)(F)F)ncn2)=C(O)C12CCC2 [Example 363] | 28
CN(C)C(=O)N1CCN(CCOc2ccc(CN3C(=O)C(C(=O)Nc4ccc(C(F)(F)F)cc4-c4cc(C(F)(F)F)ncn4)=C(O)C4(CCC4)N3C)c(F)c2F)CC1 [Example 364] | 20.9
CN(CCOc1ccc(CN2C(=O)C(C(=O)Nc3ccc(C(F)(F)F)cc3-c3cc(C(F)(F)F)ncn3)=C(O)C3(CCCC3)N2C)c(F)c1F)C1CCOCC1 [Example 365] | 12.2
CN(CCOc1ccc(CN2C(=O)C(C(=O)Nc3ccc(C(F)(F)F)cc3-c3cc(C(F)(F)F)ncn3)=C(O)C3(CCCC3)N2C)c(F)c1F)C1CCOC1 (stereo not shown) [Example 366] | 16.3
CN1N(Cc2ccc(OCCN3C4CCC3COC4)c(F)c2F)C(=O)C(C(=O)Nc2ccc(C(F)(F)F)cc2-c2cc(C(F)(F)F)ncn2)=C(O)C12CCCC2 [Example 367] | 14

SMILES | IC50 [µM]
COC(=O)CN(C)CCOc1ccc(CN2C(=O)C(C(=O)Nc3ccc(C(F)(F)F)cc3-c3cc(C(F)(F)F)ncn3)=C(O)C3(CCCC3)N2C)c(F)c1F [Example 368] | 14.7
CN1N(Cc2ccc(OCCN3CC(F)(F)C3)c(F)c2F)C(=O)C(C(=O)Nc2ccc(C(F)(F)F)cc2-c2cc(C(F)(F)F)ncn2)=C(O)C12CCCC2 [Example 369] | 21.8
C[C@@H]1COC[C@H](C)N1CCOc1ccc(CN2C(=O)C(C(=O)Nc3ccc(C(F)(F)F)cc3-c3cc(C(F)(F)F)ncn3)=C(O)C3(CCCC3)N2C)c(F)c1F [Example 370] | 18.2
CN1N(Cc2ccc(OCCN3CCOCC3(C)C)c(F)c2F)C(=O)C(C(=O)Nc2ccc(C(F)(F)F)cc2-c2cc(C(F)(F)F)ncn2)=C(O)C12CCCC2 [Example 371] | 8.5
COCC(C)(C)N(C)CCOc1ccc(CN2C(=O)C(C(=O)Nc3ccc(C(F)(F)F)cc3-c3cc(C(F)(F)F)ncn3)=C(O)C3(CCCC3)N2C)c(F)c1F [Example 372] | 16.3
CN(CCO)CCOc1ccc(CN2C(=O)C(C(=O)Nc3ccc(C(F)(F)F)cc3-c3cc(C(F)(F)F)ncn3)=C(O)C3(CCCC3)N2C)c(F)c1F [Example 373] | 23.5
CN1N(Cc2ccc(OCCN3CCC(N4CCOCC4)CC3)c(F)c2F)C(=O)C(C(=O)Nc2ccc(C(F)(F)F)cc2-c2cc(C(F)(F)F)ncn2)=C(O)C12CCCC2 [Example 374] | 16.4
COC[C@@H]1CCCN1CCOc1ccc(CN2C(=O)C(C(=O)Nc3ccc(C(F)(F)F)cc3-c3cc(C(F)(F)F)ncn3)=C(O)C3(CCCC3)N2C)c(F)c1F [Example 375] | 17.8
CN1N(Cc2ccc(OCCN3CCN(CCO)CC3)c(F)c2F)C(=O)C(C(=O)Nc2ccc(C(F)(F)F)cc2-c2cc(C(F)(F)F)ncn2)=C(O)C12CCCC2 [Example 376] | 21.4
COCCN1CCN(CCOc2ccc(CN3C(=O)C(C(=O)Nc4ccc(C(F)(F)F)cc4-c4cc(C(F)(F)F)ncn4)=C(O)C4(CCCC4)N3C)c(F)c2F)CC1 [Example 377] | 8.7
CN1N(Cc2ccc(OCCN3CCN(CCOCCO)CC3)c(F)c2F)C(=O)C(C(=O)Nc2ccc(C(F)(F)F)cc2-c2cc(C(F)(F)F)ncn2)=C(O)C12CCCC2 [Example 378] | 18
CN1N(Cc2ccc(OCCN3CCN(S(C)(=O)=O)CC3)c(F)c2F)C(=O)C(C(=O)Nc2ccc(C(F)(F)F)cc2-c2cc(C(F)(F)F)ncn2)=C(O)C12CCCC2 [Example 379] | 27.3
CN1N(Cc2ccc(OCCN3[C@@H]4COC[C@H]3C4)c(F)c2F)C(=O)C(C(=O)Nc2ccc(C(F)(F)F)cc2-c2cc(C(F)(F)F)ncn2)=C(O)C12CCCC2 [Example 380] | 20.2
CN1N(Cc2ccc(OCCN[C@@H](CC(=O)O)C(=O)O)c(F)c2F)C(=O)C(C(=O)Nc2ccc(C(F)(F)F)cc2-c2cc(C(F)(F)F)ncn2)=C(O)C12CCCC2 [Example 381, (2S)-2-[2-[2,3-Difluoro-4-[[10-hydroxy-6-methyl-8-oxo-9-[[4-(trifluoromethyl)-2-[6-(trifluoromethyl)pyrimidin-4-yl]phenyl]carbamoyl]-6,7-diazaspiro[4.5]dec-9-en-7-yl]methyl]phenoxy]ethylamino]butanedioate] | 22
CN1N(Cc2ccc(OCCNC(CC(=O)O)CC(=O)O)c(F)c2F)C(=O)C(C(=O)Nc2ccc(C(F)(F)F)cc2-c2cc(C(F)(F)F)ncn2)=C(O)C12CCCC2 [Example 382, 3-[2-[2,3-Difluoro-4-[[10-hydroxy-6-methyl-8-oxo-9-[[4-(trifluoromethyl)-2-[6-(trifluoromethyl)pyrimidin-4-yl]phenyl]carbamoyl]-6,7-diazaspiro[4.5]dec-9-en-7-yl]methyl]phenoxy]ethylamino]pentanedioate] | 21
CN1N(Cc2ccc(OCCCOC[C@H](O)CO)c(F)c2F)C(=O)C(C(=O)Nc2ccc(C(F)(F)F)cc2-c2ccc(C(F)(F)F)nc2)=C(O)C12CCC2 [Example 383, 6-[[4-[3-[(2R)-2,3-Dihydroxypropoxy]propoxy]-2,3-difluorophenyl]methyl]-9-hydroxy-5-methyl-7-oxo-N-[4-(trifluoromethyl)-2-[6-(trifluoromethyl)pyridin-3-yl]phenyl]5,6-diazaspiro[3.5]non-8-ene-8-carboxamide] | 20.9
CN1N(Cc2ccc(OCCCCOC[C@H](O)CO)c(F)c2F)C(=O)C(C(=O)Nc2ccc(C(F)(F)F)cc2-c2ccc(C(F)(F)F)nc2)=C(O)C12CCC2 [Example 384] | 11
CN1N(Cc2ccc(OCCCCCOC[C@H](O)CO)c(F)c2F)C(=O)C(C(=O)Nc2ccc(C(F)(F)F)cc2-c2ccc(C(F)(F)F)nc2)=C(O)C12CCC2 [Example 385] | 6.2
CN1N(Cc2ccc(OCCCOC[C@H](O)CO)c(F)c2F)C(=O)C(C(=O)Nc2ccc(C(F)(F)F)cc2-c2ccc(C(F)(F)F)nc2)=C(O)C12CCCC2 [Example 386] | 18.9
CN1N(Cc2ccc(OCCCCOC[C@H](O)CO)c(F)c2F)C(=O)C(C(=O)Nc2ccc(C(F)(F)F)cc2-c2ccc(C(F)(F)F)nc2)=C(O)C12CCCC2 [Example 387] | 10.7
